Measurements from article PMC10746053, “Development of Novel Pyrrole Derivatives and Their Cinnamic Hybrids as Dual COX-2/LOX Inhibitors” (Molecules, 2023).
Values joined by “and” are separate entries in the source; they are usually repeats but may differ in a detail not shown here. Identical values can stand only once. Like-named read-outs stand apart in the source and are kept apart here. Blank lines part the entries; values can stand above or below the compound they belong to.

Experiments:
[1] = Experimental lipophilicity as RM values by reversed-phase TLC; assay type: physicochemical; settings: RPTLC, methanol/water 70/30 v/v, five measurements
Source text: Lipophilicity is one of the most studied physicochemical properties in the drug discovery process and is frequently employed in structure–activity relationship (SAR) studies. It contributes to the ADMET (absorption, distribution, metabolism, excretion, toxicity) properties, solubility, permeability to the potency and efficacy of drugs. […] In TLC, the retention parameter, RF, is defined as the ratio between the migration distances of the compound and of the mobile phase, both measured from the sample application position. The term RM was introduced to facilitate a linear relationship with the log P values, and it is defined as similar to the capacity factor, k, in HPLC.
Reversed-phase thin-layer chromatography (RPTLC) was used for the determination of RM values. Silica gel plates were saturated with 5% v/v liquid paraffin in petroleum ether. The mobile phase consisted of a methanol/water mixture (70/30, v/v). The plates were developed in closed chromatography tanks saturated with the mobile phase. Spots were detected under UV light or after exposure to iodine vapor. RM values were calculated from the corresponding Rf values (from five individual measurements) using […]. RM = log[(1/Rf) − 1], (2) where Rf is obtained by dividing the distance covered by the sample by the distance covered by the mobile phase.

[2] = Inhibition of linoleic acid lipid peroxidation (AAPH); settings: 37 °C, ± SD
Source text: It is widely known that oxidative stress can induce lipid peroxidation. One of the major end products of the latter process are lipid-derived aldehydes, such as malondialdehyde (MDA), which is more chemically stable and membrane-permeable than ROS. These lipid aldehydes can participate in cross-linking with DNA and proteins and subsequently facilitate the development of various pathological states. Herein, we used the water-soluble 2,2′-azobis(2-methylpropionamidine) dihydrochloride (AAPH) as a free radical initiator for the in vitro antioxidant assay due to its ability to generate alkylperoxy radicals in the presence of oxygen molecules at 37 °C [53]. […] Pyrroles 1 and 2 with high lipophilicity (ClogP of 1 = 5.7, ClogP of 2 = 5.05; RM of 1 = 0.3076, RM of 2 = 0.0116) and molecular volume (MV of 1 = 318, MV of 2 = 290) values appeared to be weak antioxidants (34% and 33% at 100 μM, respectively). […] The presence of a bulkier substituent Ar^2 decreased the anti-lipid peroxidation activity of 5 (36% at 100 μM) compared to 8 (58% at 100 μM).
In vitro enzymatic assay was conducted as reported in previous studies. 2,2′-Azobis(2-methylpropionamidine) dihydrochloride (AAPH) was used as a controllable source of thermally produced alkylperoxy free radicals. The production of conjugated diene hydroperoxides via the oxidation of sodium linoleate in an aqueous dispersion at 37 °C was monitored at 234 nm. The results were compared to the reference compound, trolox (93%) (Table 2).

[3] = molecular target: T1, ovine COX-2 (Ovis aries, UniProt P79208); assay: Inhibition of ovine cyclooxygenase-2 (TMPD co-substrate); settings: for inhibition at 100 µM: read-out: COX-2 Inh. % at 100 μM, 100 μM, ovine COX-2
T1 sequence (P79208 17-603): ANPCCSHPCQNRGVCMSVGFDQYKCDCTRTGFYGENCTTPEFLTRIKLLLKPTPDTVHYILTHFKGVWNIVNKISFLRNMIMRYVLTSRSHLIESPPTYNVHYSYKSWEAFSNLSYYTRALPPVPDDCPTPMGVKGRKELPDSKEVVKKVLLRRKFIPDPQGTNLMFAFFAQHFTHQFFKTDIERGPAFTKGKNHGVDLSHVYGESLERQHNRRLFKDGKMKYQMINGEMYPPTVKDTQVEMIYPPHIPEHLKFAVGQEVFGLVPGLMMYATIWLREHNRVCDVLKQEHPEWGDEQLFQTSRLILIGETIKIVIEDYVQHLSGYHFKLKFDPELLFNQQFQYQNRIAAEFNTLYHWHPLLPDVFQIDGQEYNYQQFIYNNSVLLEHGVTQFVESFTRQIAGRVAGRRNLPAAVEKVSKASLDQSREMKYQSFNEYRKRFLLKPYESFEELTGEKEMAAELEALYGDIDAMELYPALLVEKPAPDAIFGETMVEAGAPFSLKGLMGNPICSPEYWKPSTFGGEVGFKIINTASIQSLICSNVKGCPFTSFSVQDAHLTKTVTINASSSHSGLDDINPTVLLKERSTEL
Experimental: The oxidized TMPD has an absorbance maximum at 590 nm. COXs require heme (Fe^3+-protoporphyrin IX) as a cofactor which may dissociate from the protein during its purification. Therefore, in the in vitro enzymatic assay of ovine COX-2 inhibition, heme is added to ensure maximal enzyme activity [54]. […] The in vitro COX-2 inhibitory activity was determined using arachidonic acid (AA) as a substrate and N,N,N′,N′-tetramethyl-p-phenylenediamine (TMPD) as a co-substrate in a buffer solution of Tris:HCl (pH 8.5) [27]. Ten microliters of the DMSO solution of the compound of interest were added in a test tube containing 730 μL of buffer Tris:HCl (pH 8.5), 50 μL of heme, 10 μL of COX-2 and 100 μL of TMPD. […] A blank determination was used first to serve as a negative control.

[4] = molecular target: T2, soybean lipoxygenase isoenzyme-1 (SLOX-1) (Glycine max, UniProt P08170); assay: Inhibition of soybean lipoxygenase in vitro; assay type: biochemical; settings: soybean LOX; for IC50: pH 9.00, ± SD, read-out: LOX Inh. IC50
T2 construct: purchased Sigma Chemical, Co. (St. Louis, MO, USA)
T2 sequence (P08170 1-839): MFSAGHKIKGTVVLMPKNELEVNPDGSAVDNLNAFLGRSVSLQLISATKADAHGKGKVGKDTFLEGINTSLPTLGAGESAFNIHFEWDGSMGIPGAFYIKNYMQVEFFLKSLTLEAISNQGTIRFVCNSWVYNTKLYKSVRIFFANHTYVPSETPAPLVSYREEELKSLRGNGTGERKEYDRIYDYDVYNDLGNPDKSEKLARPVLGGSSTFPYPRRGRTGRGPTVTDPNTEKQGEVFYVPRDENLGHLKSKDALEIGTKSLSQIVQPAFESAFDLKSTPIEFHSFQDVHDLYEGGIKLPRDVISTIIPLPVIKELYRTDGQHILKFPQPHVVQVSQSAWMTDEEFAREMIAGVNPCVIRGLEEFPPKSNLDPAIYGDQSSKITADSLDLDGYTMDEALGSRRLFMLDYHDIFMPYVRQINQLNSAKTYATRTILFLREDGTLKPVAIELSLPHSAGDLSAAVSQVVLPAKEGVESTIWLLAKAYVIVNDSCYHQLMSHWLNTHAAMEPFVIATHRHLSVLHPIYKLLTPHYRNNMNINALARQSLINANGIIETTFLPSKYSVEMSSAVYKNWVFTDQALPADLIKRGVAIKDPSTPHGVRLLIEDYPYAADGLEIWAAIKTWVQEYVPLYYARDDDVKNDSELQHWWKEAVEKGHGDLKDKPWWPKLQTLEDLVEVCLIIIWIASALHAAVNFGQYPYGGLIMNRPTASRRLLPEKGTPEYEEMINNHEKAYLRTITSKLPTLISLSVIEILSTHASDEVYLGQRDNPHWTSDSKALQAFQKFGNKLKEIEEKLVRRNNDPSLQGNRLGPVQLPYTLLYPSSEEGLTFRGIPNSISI
Experimental: In vitro anti-LOX activities were measured against soybean lipoxygenase isoenzyme-1 (SLOX-1), which is widely used as a model for mammalian LOXs.
An in vitro study was conducted as reported previously. The tested compounds were dissolved in DMSO (100 µM) and incubated at room temperature with sodium linoleate (0.1 mL) as a substrate and 0.2 mL of a soybean lipoxygenase solution in a buffer solution of Tris:HCl (pH 9.00).

[5] = system: COX-2; settings: Figure 1; cited from earlier work
[6] = system: 5-LOX; settings: Figure 1; cited from earlier work
[7] = system: COX-1; settings: Figure 1; cited from earlier work
[8] = system: paw edema; settings: Figure 1; cited from earlier work
[9] = parameters: method as in doi:10.3390/M1314; settings: RPTLC; cited from earlier work
[10] = cited from earlier work
[11] = molecular target: T1, ovine COX-2; parameters: purchased Cayman; settings: read-out: COX-2 Inh. IC50; cited from earlier work
[12] = parameters: method as in doi:10.3390/M1314; settings: Molinspiration software; cited from earlier work
[13] = molecular target: T2, soybean lipoxygenase isoenzyme-1 (SLOX-1); settings: soybean LOX; read-out: LOX Inh. IC50; cited from earlier work

- RM [1]: 0.3076
- IC50 [3]: 10 ± 0.8 µM
- IC50 [4]: 51.5 ± 1.7 µM
SMILES: CN(C)c1ccc(/C=C/c2c[nH]cc2C(=O)c2ccc(Cl)cc2)cc1 [compound 1, (E)-(4-chlorophenyl) (4-(4-(dimethylamino)styryl)-1H-pyrrol-3-yl)methanone]
- ILP % at 100 μM (inhibition of lipid peroxidation) ([2]; 100 µM): 34% and 33.8 ± 1.3%

- RM [1]: 0.0116
- inhibition at 100 µM [3]: 17%
- IC50 [4]: 7.5 ± 0.5 µM
SMILES: CN(C)c1ccc(-c2c[nH]cc2C(=O)c2ccc(Cl)cc2)cc1 [compound 2, (4-chlorophenyl) (4-(4-(dimethylamino)phenyl)-1H-pyrrol-3-yl) methanone]
- ILP % at 100 μM (inhibition of lipid peroxidation) ([2]; 100 µM): 33% and 32.8 ± 0.8%

SMILES: Cc1ccc(C(C)C)c(O)c1/C=N/NC(=O)c1cc(-c2ccccc2)n[nH]1 [IV]
- IC50 [5]: 0.068 ± 0.01 µM
- IC50 [6]: 3.05 ± 0.067 µM
- IC50 [7]: 10.3 ± 0.1 µM
- % paw edema reduction (in vivo) [8]: 81.93%

SMILES: O=C(c1ccccc1)c1cn(C(=O)/C=C/c2ccccc2)cc1-c1ccccc1 [compound 8, (E)-1-(3-Benzoyl-4-Phenyl-1H-Pyrrol-1-Yl)-3-Phenylprop-2-En-1-One]
- RM [9]: −0.4771
- ILP % at 100 μM (inhibition of lipid peroxidation) ([10]; 100 µM): 58% and 58.1 ± 1.8%
- IC50 [11]: 6 ± 0.1 µM
- miLogP [12]: 6.26
- IC50 [13]: 39 ± 2.3 µM

SMILES: COc1ccc(/C=C2\SC(=S)N(NC(=O)c3sc4ccccc4c3Cl)C2=O)cc1OC [II]
- IC50 [6]: 2.33 µM
- IC50 [7]: 3.4 µM
- % paw edema reduction (in vivo) [8]: 93.26%

SMILES: O=C(c1ccccc1)c1c[nH]cc1-c1ccccc1 [compound 4]
- RM [9]: −0.4102
- ILP % at 100 μM (inhibition of lipid peroxidation) ([10]; 100 µM): 44% and 44.3 ± 1.1%
- IC50 [11]: 0.65 ± 0.1 µM
- miLogP [12]: 3.96
- IC50 [13]: 100 ± 3.3 µM

SMILES: Cc1c(C)c2c(c(C)c1O)CCC(C)(C(=O)O)O2 (centres unmarked) [Trolox, reference compound]
- ILP % at 100 μM (inhibition of lipid peroxidation) [2]: 93 ± 2.5%

SMILES: O=C(O)/C=C/c1ccccc1 [Cinnamic acid, reference compound]
- ILP % at 100 μM (inhibition of lipid peroxidation) [10]: 78 ± 3.2%

- RM [1]: −0.4174
- IC50 [3]: 0.55 ± 0.3 µM
- IC50 [4]: 30 ± 1.6 µM
SMILES: CN(C)c1ccc(/C=C/c2cn(C(=O)/C=C/c3ccccc3)cc2C(=O)c2ccccc2)cc1 [compound 5, (E)-1-(3-benzoyl-4-((E)-4-(dimethylamino)styryl)-1H-pyrrol-1-yl)-3-phenylprop-2-en-1-one]
- ILP % at 100 μM (inhibition of lipid peroxidation) ([2]; 100 µM): 36% and 36.4 ± 0.4%

SMILES: COc1ccc(C=NNC(=O)c2sc3ccccc3c2Cl)cc1OC [III]
- IC50 [5]: 0.68 µM
- IC50 [6]: 1.87 µM
- IC50 [7]: 2.9 µM
- % paw edema reduction (in vivo) [8]: 89.8%

- RM [1]: −0.3340
- inhibition at 100 µM [3]: 12%
- inhibition at 100 µM ([4]; pH 9, 100 μM, pH 9.00, read-out: LOX Inh. % at 100 μM): 43%
SMILES: CN(C)c1ccc(-c2c[nH]cc2C(=O)c2cccs2)cc1 [compound 3, (4-(4-(dimethylamino)phenyl)-1H-pyrrol-3-yl) (thiophen-2-yl) methanone]
- ILP % at 100 μM (inhibition of lipid peroxidation) [2]: inactive
- ILP % at 100 μM (inhibition of lipid peroxidation) ([2]; 100 µM): no action at all and no

- RM [1]: −0.4771
- IC50 [3]: 7 ± 0.6 µM
- IC50 [4]: 27.5 ± 1.3 µM
SMILES: CN(C)c1ccc(-c2cn(C(=O)/C=C/c3ccccc3)cc2C(=O)c2ccc(Cl)cc2)cc1 [compound 6, (E)-1-(3-(4-chlorobenzoyl)-4-(4-(dimethylamino)phenyl)-1H-pyrrol-1-yl)-3-phenylprop-2-en-1-one]
- ILP % at 100 μM (inhibition of lipid peroxidation) ([2]; 100 µM): 62% and 61.6 ± 2.3%

SMILES: COc1cc(/C=c2\c(=O)[nH]n3c(=O)c4ccccc4nc23)cc(OC)c1OC [I]
- IC50 [5]: 0.047 ± 0.0027 µM
- IC50 [6]: 2.3 ± 0.13 µM
- IC50 [7]: 0.668 ± 0.0212 µM

- IC50 [3]: 7.2 ± 0.3 µM
- IC50 [4]: 35 ± 1.6 µM
SMILES: CN(C)c1ccc(-c2cn(C(=O)/C=C/c3ccccc3)cc2C(=O)c2cccs2)cc1 [compound 7, (E)-1-(3-(4-(dimethylamino)phenyl)-4-(thiophene-2-carbonyl)-1H-pyrrol-1-yl)-3-phenylprop-2-en-1-one]
- ILP % at 100 μM (inhibition of lipid peroxidation) ([2]; 100 µM): 31% and 31.1 ± 1.1%
